What follows are compounds tested against T1, KRAS G12C 1-169, his-tagged protein, GDP-loaded (Homo sapiens, UniProt P01116, G12C) (assay: Biochemical assay: covalent modification of KRAS G12C measured by mass spectrometry (RapidFire/TOF or Q-Exactive)). Conditions: covalent binding to (modification of) KRAS G12C after a ten minute incubation period.
T1 construct: KRAS G12C 1-169, his-tagged protein, GDP-loaded
Assay type: binding
Procedure: Test compounds were prepared as 10 mM stock solutions in DMSO (Fisher cat #BP-231-100). KRAS G12C 1-169, his-tagged protein, GDP-loaded is diluted to 2 μM or 0.5 μM in buffer (20 mM Hepes, 150 mM NaCl, 1 mM MgCl2). Compounds were tested for activity as follows:
Compounds were diluted to 50× final test concentration in DMSO in 96-well storage plates. Compound stock solutions were vortexed before use and observed carefully for any sign of precipitation. Dilutions are as follow: • For 100 μM final compound concentration, compounds were diluted to 5000 μM (5 μL 10 mM compound stock+5 μL DMSO and mixed well by pipetting. • For 30 μM final compound concentration, compounds were diluted to 1500 μM (3 μL 10 mM compound stock+17 μL DMSO) and mixed well by pipetting. • For 10 μM final compound concentration, compounds were diluted to 500 μM (2 μL 10 mM compound stock+38 μL DMSO) and mixed well by pipetting. 49 μL of the stock protein solution was added to each well of a 96-well PCR plate (Fisher cat #1423027). 1 μL of the diluted 50× compounds were added to appropriate wells in the PCR plate using 12-channel pipettor. Reactions were mixed carefully and thoroughly by pipetting up/down with a 200 μL multi-channel pipettor. The plate was sealed well with aluminum plate seal, and stored in drawer at room temperature for 10 minutes, 30 minutes, 2 hours or 24 hours. 5 μL of 2% formic acid (Fisher cat #A117) in de-ionized H2O was then added to each well followed by mixing with a pipette. The plate was then resealed with aluminum seal and stored on dry ice until analyzed as described below.
The above described assays were analyzed by mass spectrometry according to one of the following two procedures:
The MS instrument was set to positive polarity, 2 GHz resolution, and low mass (1700) mode and allowed to equilibrate for 30 minutes. The instrument was then calibrated, switched to acquisition mode and the appropriate method loaded.
After another 30 minute equilibration time, a blank batch (i.e., buffer) was run to ensure equipment is operating properly. The samples were thawed at 37° C. for 10 minutes, briefly centrifuged, and transfer to the bench top. Wells A1 and H12 were spiked with 1 μL 500 μM internal standard peptide, and the plates centrifuged at 2000×g for 5 minutes. The method was then run and masses of each individual well recorded.
The masses (for which integration data is desired) for each well were pasted into the platemap and exported from the analysis. Masses for the internal standards were exported as well. The data at 50 ppm was extracted for the +19 charge state, and identity of well A1 was assigned using the internal standard spike and integrated. Peak data was exported as a TOF list and the above steps were repeated individually, for the +20, 21, 22, 23, 24, and 25 charge states.
The masses and peak intensities of KRAS G12C protein species were measured using a Dionex RSLCnano system (Thermo Scientific) connected to a Q Exactive Plus mass spectrometer (Thermo Scientific).
[…] of sample was each loaded onto a Aeris™ 3.6 μm WIDEPORE C4 200 Å, LC Column 50×2.1 mm column maintained at 40° C. at a flow rate of 600 μL/min with 20% Solvent A (0.1% formic acid in H2O) and […] (0.1% formic acid in acetonitrile). The liquid chromatography conditions were 20% solvent B for 1 minute, 20% to 60% solvent B for 1.5 minutes, 60% to 90% solvent for 0.5 minute, 90% solvent B for 0.2 minute, 90% to 20% solvent B for 0.2 minute, and then equilibrated for 1.6 minutes before the following sample injection. The flow rate was maintained at 600 μL/min throughout the sample analysis.
The mass spectrometer was operated in profile mode at a resolution of 17500, 5 microscans, using 50 msec max injection time and an AGC target of 1×10^6, and a full mass range from 800-1850 m/z was recorded. The HCD trapping gas was optimized for maximum sensitivity for intact proteins. […]
With “1-((2R,5S)-4-(6- chloro-7-(1,6- dimethyl-1H- benzo[d][1,2,3]triazol- 7-yl)-2-(3- (dimethylamino)azetidin- 1-yl)-8- flurooquinazolin-4- yl)-2,5- dimethylpiperazin-1- yl)prop-2-en-1-one [Compound 137]” the Binding % was “+ (+ indicates binding activity greater than 0% and up to 50%)”. `C=CC(=O)N1C[C@H](C)N(c2nc(N3CC(N(C)C)C3)nc3c(F)c(-c4c(C)ccc5[nH]nc(N)c45)c(Cl)cc23)C[C@H]1C` (atropisomer, axis not shown) [Compound 35, 1-((2R,5S)-4-((R)-7-(3-amino-5-methyl-1H-indazol-4-yl)-6-chloro-2-(3-(dimethylamino)azetidin-1-yl)-8-fluoroquinazolin-4-yl)-2,5-dimethylpiperazin-1-yl)prop-2-en-1-one] was tested, and the Binding % was “+++ (+++ indicates binding activity greater than 80%)”. With `C=CC(=O)N1CCN(c2nc(N3CC(N(C)C)C3)nc3c(F)c(-c4c(C)ccc5[nH]nc(N)c45)c(Cl)cc23)CC1` (atropisomer, axis not shown) [Compound 37, (R)-1-(4-(7-(3-amino-5-methyl-1H-indazol-4-yl)-6-chloro-2-(3-(dimethylamino)azetidin-1-yl)-8-fluoroquinazolin-4-yl)piperazin-1-yl)prop-2-en-1-one] the Binding % was “+++ (+++ indicates binding activity greater than 80%)”. In the case of `C=CC(=O)N1CCN(c2nc(N3CC(N(C)C)C3)nc3c(F)c(-c4c(C)ccc5[nH]nc(N)c45)c(Cl)cc23)CC1` (atropisomer, axis not shown) [Compound 38, (S)-1-(4-(7-(3-amino-5-methyl-1H-indazol-4-yl)-6-chloro-2-(3-(dimethylamino)azetidin-1-yl)-8-fluoroquinazolin-4-yl)piperazin-1-yl)prop-2-en-1-one], the Binding % is reported as “+ (+ indicates binding activity greater than 0% and up to 50%)”. With `C=CC(=O)N1C[C@H](C)N(c2nc(OCCN3CCCC3)nc3c(F)c(-c4c(C)ccc5[nH]nc(N)c45)c(Cl)cc23)C[C@H]1C` (atropisomer, axis not shown) [Compound 53, 1-((2R,5S)-4-((S)-7-(3-amino-5-methyl-1H-indazol-4-yl)-6-chloro-8-fluoro-2-(2-(pyrrolidin-1-yl)ethoxy)quinazolin-4-yl)-2,5-dimethylpiperazin-1-yl)prop-2-en-1-one] the Binding % was “+ (+ indicates binding activity greater than 0% and up to 50%)”. With `C=CC(=O)N1C[C@H](C)N(c2nc(OCCN3CCOCC3)nc3c(F)c(-c4c(C)ccc5[nH]nc(N)c45)c(Cl)cc23)C[C@H]1C` (atropisomer, axis not shown) [Compound 58, 1-((2R,5S)-4-((S)-7-(3-amino-5-methyl-1H-indazol-4-yl)-6-chloro-8-fluoro-2-(2-morpholinoethoxy)quina-zolin-4-yl)-2,5-dimethylpiperazin-1-yl)prop-2-en-1-one] the Binding % was “+ (+ indicates binding activity greater than 0% and up to 50%)”. For `C=CC(=O)N1C[C@H](C)N(c2nc(OCCN3CCOCC3)nc3c(F)c(-c4c(C)ccc5[nH]nc(N)c45)c(Cl)cc23)C[C@H]1C` (atropisomer, axis not shown) [Compound 59, 1-((2R,5S)-4-((R)-7-(3-amino-5-methyl-1H-indazol-4-yl)-6-chloro-8-fluoro-2-(2-morpholinoethoxy)quina-zolin-4-yl)-2,5-dimethylpiperazin-1-yl)prop-2-en-1-one], the Binding % was “+++ (+++ indicates binding activity greater than 80%)”. `C=CC(=O)N1C[C@H](C)N(c2nc(OCCN3CCC(F)(F)C3)nc3c(F)c(-c4c(C)ccc5[nH]nc(N)c45)c(Cl)cc23)C[C@H]1C` (atropisomer, axis not shown) [Compound 66, 1-((2R,5S)-4-((S)-7-(3-amino-5-methyl-1H-indazol-4-yl)-6-chloro-2-(2-(3,3-difluoropyrrolidin-1-yl)ethoxy)-8-fluoroquinazolin-4-yl)-2,5-dimethylpiperazin-1-y)prop-2-en-1-one] was tested, and the Binding % was “+ (+ indicates binding activity greater than 0% and up to 50%)”. For `C=CC(=O)N1C[C@H](C)N(c2nc(OCCN3CCC(F)(F)C3)nc3c(F)c(-c4c(C)ccc5[nH]nc(N)c45)c(Cl)cc23)C[C@H]1C` (atropisomer, axis not shown) [Compound 67, 1-((2R,5S)-4-((R)-7-(3-amino-5-methyl-1H-indazol-4-yl)-6-chloro-2-(2-(3,3-difluoropyrrolidin-1-yl)ethoxy)-8-fluoroquinazolin-4-yl)-2,5-dimethylpiperazin-1-yl)prop-2-en-1-one], the Binding % was “+++ (+++ indicates binding activity greater than 80%)”. In the case of `C=CC(=O)N1C[C@H](C)N(c2nc(N3CC(N(C)C)C3)nc3c(F)c(-c4c(C)ccc5[nH]nc(C6CC6)c45)c(Cl)cc23)C[C@H]1C` (atropisomer, axis not shown) [Compound 75, 1-((2R,5S)-4-((S)-6-chloro-7-(3-cyclopropyl-5-methyl-1H-indazol-4-yl)-2-(3-(dimethylamino)azetidin-1-yl)-8-fluoroquinazolin-4-yl)-2,5-dimethylpiperazin-1-yl)prop-2-en-1-one], the Binding % is reported as “+ (+ indicates binding activity greater than 0% and up to 50%)”. For `C=CC(=O)N1C[C@H](C)N(c2nc(N3CC(N(C)C)C3)nc3c(F)c(-c4c(C)ccc5[nH]nc(C6CC6)c45)c(Cl)cc23)C[C@H]1C` (atropisomer, axis not shown) [Compound 76, 1-((2R,5S)-4-((R)-6-chloro-7-(3-cyclopropyl-5-methyl-1H-indazol-4-yl)-2-(3-(dimethylamino)azetidin-1-yl)-8-fluoroquinazolin-4-yl)-2,5-dimethylpiperazin-1-yl)prop-2-en-1-one], the Binding % was “+++ (+++ indicates binding activity greater than 80%)”. In the case of `C=CC(=O)N1C[C@H](C)N(c2nc(OCCN3CC(F)(F)C3)nc3c(F)c(-c4c(C)ccc5[nH]nc(N)c45)c(Cl)cc23)C[C@H]1C` (atropisomer, axis not shown) [Compound 83, 1-((2R,5S)-4-((S)-7-(3-amino-5-methyl-1H-indazol-4-yl)-6-chloro-2-(2-(3,3-difluoroazetidin-1-yl)ethoxy)-8-fluoroquinazolin-4-yl)-2,5-dimethylpiperazin-1-yl)prop-2-en-1-one], the Binding % is reported as “+ (+ indicates binding activity greater than 0% and up to 50%)”. For `C=CC(=O)N1C[C@H](C)N(c2nc(OCCN3CC(F)(F)C3)nc3c(F)c(-c4c(C)ccc5[nH]nc(N)c45)c(Cl)cc23)C[C@H]1C` (atropisomer, axis not shown) [Compound 84, 1-((2R,5S)-4-((R)-7-(3-amino-5-methyl-1H-indazol-4-yl)-6-chloro-2-(2-(3,3-difluoroazetidin-1-yl)ethoxy)-8-fluoroquinazolin-4-yl)-2,5-dimethylpiperazin-1-yl)prop-2-en-1-one], the Binding % was “+++ (+++ indicates binding activity greater than 80%)”. `C=CC(=O)N1C[C@H](C)N(c2nc(N3CC(N(C)C)C3)nc3c(F)c(-c4c(C)ccc5cnn(C)c45)c(Cl)cc23)C[C@H]1C` (atropisomer, axis not shown) [Compound 87, 1-((2R,5S)-4-((R)-6-chloro-7-(1,6-dimethyl-1H-indazol-7-yl)-2-(3-(dimethylamino)azetidin-1-yl)-8-fluoroquinazolin-4-yl)-2,5-dimethylpiperazin-1-yl)prop-2-en-1-one] was tested, and the Binding % was “+++ (+++ indicates binding activity greater than 80%)”.

Reference: patent US11377441B2, “Covalent inhibitors of KRAS” (Araxes Pharma LLC, priority 2017, dated 2022)
